Test results reported in publication PMC6434189, “Peperomin E and its orally bioavailable analog induce oxidative stress-mediated apoptosis of acute myeloid leukemia progenitor cells by targeting thioredoxin reductase” (Redox Biology, 2019).

Target: T1, TrxR1 without Sec498 residue (TrxR1 nSec) (Homo sapiens, UniProt Q16881)
T1 construct: protein fragment, without selenocysteine residue; purchased Abcam ab168011
T1 sequence (Q16881 1-497 isoform Q16881-5): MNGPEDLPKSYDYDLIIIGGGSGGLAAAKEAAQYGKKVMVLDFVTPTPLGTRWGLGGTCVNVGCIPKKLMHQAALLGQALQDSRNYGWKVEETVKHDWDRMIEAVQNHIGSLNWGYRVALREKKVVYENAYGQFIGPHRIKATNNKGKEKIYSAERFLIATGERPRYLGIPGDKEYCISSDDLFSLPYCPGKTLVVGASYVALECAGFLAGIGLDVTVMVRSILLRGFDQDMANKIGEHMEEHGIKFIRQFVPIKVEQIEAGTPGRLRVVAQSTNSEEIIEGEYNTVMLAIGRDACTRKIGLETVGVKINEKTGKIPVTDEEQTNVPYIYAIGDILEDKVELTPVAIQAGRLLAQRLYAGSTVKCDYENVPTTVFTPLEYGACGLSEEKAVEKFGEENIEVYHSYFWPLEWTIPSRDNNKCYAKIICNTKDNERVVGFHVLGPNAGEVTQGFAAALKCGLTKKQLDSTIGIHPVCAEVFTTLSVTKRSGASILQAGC
Experiment: In vitro TrxR1 activity assay (DTNB reduction), Sec-missing enzyme
Type: biochemical
Conditions: Sec-missing enzyme 0.1 μM
Description: The in vitro TrxR1 activity assay was performed using the DTNB reduction assay. Briefly, 0.1 μM recombinant human TrxR1 or TrxR1 without Sec498 residue (TrxR1 nSec) protein was reduced with 100 μM NADPH in assay buffer (50 mM Tris-HCl, 1 mM EDTA, pH = 7.5) for 30 min at room temperature. The reduced proteins was then treated with the indicated concentrations of PepE (final concentrations of 0.25, 0.5, 1, 2, 4, 6 μM), respectively, and incubated for 1 h at 37 °C. A mixture of assay buffer solution (50 mM Tris-HCl, 1 mM EDTA, pH = 7.5) containing DTNB and NADPH was added then added, making the final concentrations of DTNB and NADPH 2 mM and 200 μM, respectively. The absorbance was monitored at 412 nm using the SpectraMax i3x microplate reader (Molecular Devices). The linear increase of absorbance during the initial 3 min was recorded for calculating the relative enzyme activity. The same amount of DMSO was added to the control experiments and the activity is expressed as the percentage of the control.

IC50: > 8 µM
Compound: C=C1C(=O)OC[C@H]1C(c1cc(OC)c2c(c1)OCO2)c1cc(OC)c2c(c1)OCO2 [PepE, Peperomin E]
